The results in this text go back to ChEMBL document CHEMBL1275418, “IMP-15-producing Pseudomonas aeruginosa strain isolated in a U.S. medical center: a recent arrival from Mexico” (2008).

Where only a bound is given, the exact number is not on record here.

Common to all, as to type: functional
Experiment [1] has as its system Pseudomonas aeruginosa. The experiment in a line: Antibacterial activity against Pseudomonas aeruginosa 1750J expressing beta-lactamase IMP-15 by Etest in presence of EDTA.
Experiment [2] has as its system Pseudomonas aeruginosa. The experiment in a line: Antibacterial activity against Pseudomonas aeruginosa isolates by Etest.
Experiment [3] concerns Pseudomonas aeruginosa. The experiment in a line: Antibacterial activity against Pseudomonas aeruginosa 1750J expressing beta-lactamase IMP-15 by Etest.
Experiment [4] relates to Pseudomonas aeruginosa. Description: Antibacterial activity against Pseudomonas aeruginosa 1750J expressing beta-lactamase IMP-15 by Etest in presence of beta-lactamase inhibitor Tazobactam.

By MIC is commonly meant the lowest concentration that inhibits growth of the organism. For the compound `O=C(O)C1=CC[C@@H]2CC(=O)N12` [CARBAPENEM], the MIC in the experiment with Pseudomonas aeruginosa [1] is 8 mg/L; with Pseudomonas aeruginosa [2] it was more than 256 mg/L.
Take `CC(C)(O/N=C(\C(=O)N[C@@H]1C(=O)N2C(C(=O)[O-])=C(C[n+]3ccccc3)CS[C@H]12)c1csc(N)n1)C(=O)O` [CEFTAZIDIME]: the MIC against Pseudomonas aeruginosa [2] is not below 16 mg/L; in the experiment with Pseudomonas aeruginosa [3], more than 256 mg/L.
As to `O=C(O)c1cn(C2CC2)c2cc(N3CCNCC3)c(F)cc2c1=O` [CIPROFLOXACIN], the MIC in the experiment on Pseudomonas aeruginosa [3] is more than 32 mg/L.
In the experiment with Pseudomonas aeruginosa [3], `C[C@@H](O)[C@H]1C(=O)N2C(C(=O)O)=C(S[C@@H]3CN[C@H](C(=O)Nc4cccc(C(=O)O)c4)C3)[C@H](C)[C@H]12` [ERTAPENEM] had an MIC of more than 32 mg/L.
For `C[C@@H](O)[C@H]1C(=O)N2C(C(=O)O)=C(SCCNC=N)C[C@H]12` [IMIPENEM ANHYDROUS], the minimal inhibitory concentration (MIC) is not below 8 mg/L against Pseudomonas aeruginosa [2] and more than 32 mg/L against Pseudomonas aeruginosa [3].
`C[C@@H](O)[C@H]1C(=O)N2C(C(=O)O)=C(S[C@@H]3CN[C@H](C(=O)N(C)C)C3)[C@H](C)[C@H]12` [MEROPENEM]: the MIC in the experiment on Pseudomonas aeruginosa [2] is not below 8 mg/L; against Pseudomonas aeruginosa [3] it was more than 32 mg/L.
For the compound `CCN1CCN(C(=O)N[C@@H](C(=O)N[C@@H]2C(=O)N3[C@@H]2SC(C)(C)[C@@H]3C(=O)O)c2ccccc2)C(=O)C1=O` [PIPERACILLIN], the minimal inhibitory concentration (MIC) in the experiment with Pseudomonas aeruginosa [4] is more than 256 mg/L.
With `NC[C@H]1O[C@H](O[C@H]2[C@H](O)[C@@H](O[C@H]3O[C@H](CO)[C@@H](O)[C@H](N)[C@H]3O)[C@H](N)C[C@@H]2N)[C@H](N)C[C@@H]1O` [TOBRAMYCIN], in the experiment with Pseudomonas aeruginosa [3], the MIC is more than 256 mg/L.
The same measure, in the same setting: the value for GENTAMICIN was more than 256 mg/L.
